{
  "source": "patent US11857530B2",
  "about": "“Cannabinoid formulations” (Endocanna Health, Inc., priority 2017, dated 2024)",
  "origin": "cited, not measured here",
  "key": {"[1]": {"biological_target": "CYP3A4 (Homo sapiens, UniProt P08684)", "sequence (P08684 whole entry)": "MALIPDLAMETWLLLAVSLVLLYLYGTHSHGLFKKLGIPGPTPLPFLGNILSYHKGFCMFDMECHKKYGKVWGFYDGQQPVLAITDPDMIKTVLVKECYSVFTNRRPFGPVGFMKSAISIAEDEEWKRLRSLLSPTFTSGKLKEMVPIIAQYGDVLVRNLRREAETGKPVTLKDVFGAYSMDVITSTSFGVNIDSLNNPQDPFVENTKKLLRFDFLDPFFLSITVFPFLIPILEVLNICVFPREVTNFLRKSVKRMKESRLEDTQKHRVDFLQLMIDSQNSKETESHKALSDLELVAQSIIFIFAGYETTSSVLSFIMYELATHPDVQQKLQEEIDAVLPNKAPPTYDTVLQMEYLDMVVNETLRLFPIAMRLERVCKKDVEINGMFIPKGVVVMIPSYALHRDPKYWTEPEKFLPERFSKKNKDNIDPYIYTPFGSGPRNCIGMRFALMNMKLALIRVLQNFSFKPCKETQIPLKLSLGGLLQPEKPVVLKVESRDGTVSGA", "settings": "after oromucosal dosing; for boost of THC and CBD levels by ketoconazole: co-administered CYP3A4 inhibitor ketoconazole; for boost of THC and CBD levels by the CYP3A4 inhibitor ketoconazole: clinical studies, co-administered ketoconazole"}, "[2]": {"biological_target": "ABCB1 (Homo sapiens, UniProt P08183)", "sequence (P08183 whole entry)": "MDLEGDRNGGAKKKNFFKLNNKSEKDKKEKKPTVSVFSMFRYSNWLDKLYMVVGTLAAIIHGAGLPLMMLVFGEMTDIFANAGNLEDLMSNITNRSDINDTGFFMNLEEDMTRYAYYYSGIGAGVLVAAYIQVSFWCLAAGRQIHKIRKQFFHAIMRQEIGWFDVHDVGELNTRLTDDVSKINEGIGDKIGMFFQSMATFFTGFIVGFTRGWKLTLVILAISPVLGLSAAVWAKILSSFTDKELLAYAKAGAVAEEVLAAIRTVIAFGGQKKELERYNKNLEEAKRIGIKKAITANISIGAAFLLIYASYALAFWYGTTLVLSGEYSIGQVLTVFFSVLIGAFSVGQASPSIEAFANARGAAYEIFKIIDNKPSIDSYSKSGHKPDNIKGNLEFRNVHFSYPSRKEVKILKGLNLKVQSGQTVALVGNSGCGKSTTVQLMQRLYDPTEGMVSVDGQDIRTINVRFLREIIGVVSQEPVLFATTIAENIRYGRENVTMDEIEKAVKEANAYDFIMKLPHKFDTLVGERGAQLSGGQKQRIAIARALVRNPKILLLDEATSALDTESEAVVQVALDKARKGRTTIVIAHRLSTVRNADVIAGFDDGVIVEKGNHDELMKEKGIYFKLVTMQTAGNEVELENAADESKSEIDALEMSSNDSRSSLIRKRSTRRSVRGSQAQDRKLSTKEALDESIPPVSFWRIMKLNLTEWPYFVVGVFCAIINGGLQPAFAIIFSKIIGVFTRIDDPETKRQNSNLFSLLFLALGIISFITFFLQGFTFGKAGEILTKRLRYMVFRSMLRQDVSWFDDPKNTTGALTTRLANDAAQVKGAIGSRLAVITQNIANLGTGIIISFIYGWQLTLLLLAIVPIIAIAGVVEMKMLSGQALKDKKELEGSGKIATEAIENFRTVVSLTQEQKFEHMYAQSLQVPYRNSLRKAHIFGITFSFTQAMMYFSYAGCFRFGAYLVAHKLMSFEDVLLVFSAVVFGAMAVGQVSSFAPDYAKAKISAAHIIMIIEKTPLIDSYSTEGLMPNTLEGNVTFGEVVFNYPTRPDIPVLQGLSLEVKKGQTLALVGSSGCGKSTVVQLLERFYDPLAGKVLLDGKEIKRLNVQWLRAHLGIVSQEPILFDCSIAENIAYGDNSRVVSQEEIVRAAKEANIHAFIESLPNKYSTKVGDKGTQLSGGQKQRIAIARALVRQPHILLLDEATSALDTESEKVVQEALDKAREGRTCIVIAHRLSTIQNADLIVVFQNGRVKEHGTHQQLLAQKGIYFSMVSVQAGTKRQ"}},
  "data": [
    {"molecule": "C=C(C)[C@@H]1CCC(C)=C[C@H]1c1c(O)cc(CCCCC)cc1O", "note": "[CBD, Cannabidiol]", "values": [
      {"measurement": "boost of THC and CBD levels by ketoconazole", "setting": "[1]", "result": "approximately 2 fold"},
      {"measurement": "boost of THC and CBD levels by the CYP3A4 inhibitor ketoconazole", "setting": "[1]", "result": "dosing by approximately 2-fold"}
    ]},
    {"molecule": "CCCCCc1cc(O)c2c(c1)OC(C)(C)[C@@H]1CCC(C)=C[C@@H]21", "note": "[THC, Tetrahydrocannabinol]", "values": [
      {"measurement": "boost of THC and CBD levels by ketoconazole", "setting": "[1]", "result": "approximately 2 fold"},
      {"measurement": "boost of THC and CBD levels by the CYP3A4 inhibitor ketoconazole", "setting": "[1]", "result": "dosing by approximately 2-fold"},
      {"measurement": "THC levels, fold lower, Homozygous MINOR Alleles (T/T)", "setting": "[2]; ABCB1 SNIP 2-01-AFMLG, genotype T/T", "result": "may have 2-fold lower"},
      {"measurement": "blood THC levels after consuming THC", "setting": "[2]; users with homozygous alleles (T/T) at rs1045642 of ABCB1, relative to people with a different genotype", "result": "two-fold lower"}
    ]}
  ]
}
